Results taken from article PMC10649063, “Optimization of a Novel Tyrosinase Inhibitory Peptide from Atrina pectinata Mantle and Its Molecular Inhibitory Mechanism” (Foods, 2023).
“Also recorded” adds a separate entry of the source. Like-named read-outs stand apart in the source and are kept apart here. Blank lines part the entries; values can stand above or below the molecule they belong to. Peptide text beside a SMILES is read from it.

What was measured:
Mushroom tyrosinase = target: T1, Mushroom tyrosinase (Agaricus bisporus, UniProt C7FF04); experiment: Tyrosinase inhibitory activity (L-tyrosine substrate, absorbance at 475 nm); format: biochemical
T1 construct: purchased Beijing Solarbio Biotechnology Co., Ltd
T1 sequence (C7FF04 1-392 limits assumed): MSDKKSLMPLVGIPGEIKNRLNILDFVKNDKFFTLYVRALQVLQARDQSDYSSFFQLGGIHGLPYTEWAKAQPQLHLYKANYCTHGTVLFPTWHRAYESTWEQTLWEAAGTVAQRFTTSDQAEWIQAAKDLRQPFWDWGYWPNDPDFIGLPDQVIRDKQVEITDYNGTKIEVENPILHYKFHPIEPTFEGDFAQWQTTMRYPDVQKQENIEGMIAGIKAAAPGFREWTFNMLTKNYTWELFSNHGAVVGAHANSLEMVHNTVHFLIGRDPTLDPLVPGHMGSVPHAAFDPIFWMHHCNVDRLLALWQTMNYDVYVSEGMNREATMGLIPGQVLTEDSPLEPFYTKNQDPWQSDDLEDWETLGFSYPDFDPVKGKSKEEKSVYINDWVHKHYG
Method: Tyrosinase inhibitory activity was determined in conformity with. With reference to the reagent addition in Table 1, we added phosphate buffer solution (PBS, pH 6.8, 0.1 mol/L), sample solutions and L-tyrosine solution (L-Tyr, 0.5 mg/mL, pH 6.8 in PBS) to each well in a 96-well plate. These were mixed well and incubated at 37 °C for 10 min. Then, 20 μL of mushroom tyrosinase solution (500 U/mL) was added, mixed and reacted at 37 °C for 15 min, and monitored at 475 nm. The tyrosinase inhibition rate (Y) was calculated as follows:(1) Y=(1−A4−A3/A2−A1)×100% where A4 is the absorbance of the reaction well of the sample, A3 is the absorbance value of the sample background well, A2 is the absorption value of the solvent reaction well and A1 is the absorbance of the solvent background well.

tyrosinase = target: T2, tyrosinase (Agaricus bisporus, UniProt C7FF04); experiment: Enzyme inhibition kinetic assay (enzyme concentration vs. rate, Lineweaver–Burk plots); format: biochemical, mushroom; conditions: for Ki: Inhibition Constant KI (mM), enzyme–inhibitor complex; for Inhibition Constant KIS: enzyme–inhibitor–substrate complex
T2 construct: purchased Beijing Solarbio Biotechnology Co., Ltd
Source text: The Lineweaver–Burk double-inverse curve was obtained by taking the reciprocal of the substrate concentration (1/[S]) as the horizontal coordinate and the reciprocal of the initial reaction rate (1/V) as the vertical coordinate to determine the type of inhibition and to calculate the Mie constant (KM) and the maximum reaction rate (Vmax).
To elucidate the mechanism of inhibition of tyrosinase by YYP, kinetic studies were used to investigate the kinetic characterization of the inhibitory response (Figure 6).
The Lineweaver–Burk double-inverse plot of the inhibitory effect of YYP on tyrosinase is illustrated in Figure 6. The 1/V were both fitted linearly to the 1/[S] (R^2 and p-values shown in Table 10) and intersected in the second quadrant of the graph. As the amount of YYP increased, the value of KM increased and the value of Vmax decreased.
The mixed-inhibitory type inhibits tyrosinase via two distinct pathways: competitively forming enzyme–inhibitor (EI) complexes and interrupting enzyme–substrate–inhibitor (ESI) complexes in a noncompetitive manner. The inhibition constant KI or KIS is the dissociation constant for the dissociation of the inhibitor (I) from the EI complexs or the enzyme–inhibitor–substrate (EIS) complexs. Both baicalein and cinnamic acid derivatives are reversible mixed-type inhibitors. […] Summarized in Table 10, based on the slope ratio and intercept ratio of the Lineweaver–Burk curve (with and without the presence of samples), the KI and KIS can be obtained.

[1] = target: Mushroom tyrosinase (Agaricus bisporus) (UniProt C7FF04)
[2] = target: Mushroom tyrosinase (Agaricus bisporus) (UniProt C7FF04); experiment: enzyme inhibition kinetics (Lineweaver-Burk); tyrosinase with L-tyrosine as substrate; KI and KIS from the slope ratio and intercept ratio of the Lineweaver-Burk lines with and without YYP; YYP 2 mM
[3] = target: Mushroom tyrosinase (Agaricus bisporus) (UniProt C7FF04); experiment: enzyme inhibition kinetics (Lineweaver-Burk); tyrosinase with L-tyrosine as substrate; KI and KIS from the slope ratio and intercept ratio of the Lineweaver-Burk lines with and without YYP; YYP 1 mM
[4] = target: Mushroom tyrosinase (Agaricus bisporus) (UniProt C7FF04); experiment: enzyme inhibition kinetics (Lineweaver-Burk); tyrosinase with L-tyrosine as substrate; KI and KIS from the slope ratio and intercept ratio of the Lineweaver-Burk lines with and without YYP; YYP 0.5 mM
[5] = synthetic peptides, read-out: Tyrosinase Inhibitory Activity (IC50)

Molecule: CC(C)C[C@H](NC(=O)[C@H](Cc1ccc(O)cc1)NC(=O)[C@@H]1CCCN1)C(=O)N[C@@H](CCCCN)C(=O)O [PYLK, Pro-Tyr-Leu-Lys] (H-PYLK-OH; N-terminus and C-terminus assumed)
IC50 (Mushroom tyrosinase; [5]): > 10000 µM

Molecule: N[C@@H](Cc1ccc(O)cc1)C(=O)N[C@@H](Cc1ccc(O)cc1)C(=O)N1CCC[C@H]1C(=O)O [YYP, Tyr-Tyr-Pro] (H-Tyr-Tyr-Pro-OH; N-terminus and C-terminus assumed)
Ki (tyrosinase; YYP 0.5 mM): 0.245 mM
Ki (tyrosinase; YYP 1 mM): 0.283 mM
Ki (tyrosinase; YYP 2 mM): 0.428 mM
Type of tyrosinase inhibition (tyrosinase; Lineweaver–Burk analysis): mixture of noncompetitive and competitive types; also recorded: mixed type of inhibition; also recorded: hybrid
Maximum Reaction Speed Vmax (A475/min) (tyrosinase; YYP 0.5 mM): 0.0212 A475/min
Inhibition Constant KIS (tyrosinase; YYP 0.5 mM): 8.3833 mM
Maximum Reaction Speed Vmax (A475/min) (tyrosinase; YYP 1 mM): 0.0206 A475/min
Inhibition Constant KIS (tyrosinase; YYP 1 mM): 11.4139 mM
Maximum Reaction Speed Vmax (A475/min) (tyrosinase; YYP 2 mM): 0.0192 A475/min
Inhibition Constant KIS (tyrosinase; YYP 2 mM): 12.1276 mM
Reversibility of tyrosinase inhibition (tyrosinase; enzyme concentration vs. initial rate at different YYP concentrations): reversible
IC50 (Mushroom tyrosinase): 1760 ± 25 µM

Molecule: Tyr-Tyr-Pro (YYP) (peptide)
KIS (inhibitor from the enzyme-inhibitor-substrate complex) [2]: 12.1 mM
KIS (inhibitor from the enzyme-inhibitor-substrate complex) [3]: 11.4 mM
KIS (inhibitor from the enzyme-inhibitor-substrate complex) [4]: 8.38 mM
Tyrosinase Inhibitory Activity (IC50, mM); oxidation of L-tyrosine by mushroom tyrosinase read at 475 nm [1]: 1.76 mM

B2: Pro-His-His-Phe (PHHF) (peptide)
peptide: PHHF
Tyrosinase Inhibitory Activity (IC50, mM); oxidation of L-tyrosine by mushroom tyrosinase read at 475 nm [1]: > 10 mM

More lines, now with the values ahead:

IC50 (Mushroom tyrosinase; [5]): 5870 ± 68 µM
Molecule: CC(C)[C@H](NC(=O)[C@H](CCCNC(=N)N)NC(=O)[C@@H](N)Cc1ccccc1)C(=O)N[C@@H](CCCCN)C(=O)O [FRVK, Phe-Arg-Val-Lys] (H-FRVK-OH; N-terminus and C-terminus assumed)

IC50 (Mushroom tyrosinase; [5]): > 10000 µM
Molecule: O=C(O)[C@H](Cc1ccccc1)NC(=O)[C@H](Cc1c[nH]cn1)NC(=O)[C@H](Cc1c[nH]cn1)NC(=O)[C@@H]1CCCN1 [PHHF, Pro-His-His-Phe] (H-PHHF-OH; N-terminus and C-terminus assumed)

Tyrosinase Inhibitory Activity (IC50, mM); oxidation of L-tyrosine by mushroom tyrosinase read at 475 nm [1]: > 10 mM
Molecule: Pro-Tyr-Leu-Lys (PYLK) (peptide)

Tyrosinase Inhibitory Activity (IC50, mM); oxidation of L-tyrosine by mushroom tyrosinase read at 475 nm [1]: 5.87 mM
B1: Phe-Arg-Val-Lys (FRVK) (peptide)
peptide: FRVK
